# Tested on: MMP1
# Assay: MMP1 expression in human skin explants after UV-irradiation (immunohistochemistry)
# Type: cell-based
# Method: The effect of the polypeptide IK34720 (SEQ ID NO: 3) on MMP-1 activity in human skin was evaluated using the following protocol.
# FIGS. 17 and 18 illustrate the effect of the polypeptide IK34720 (SEQ ID NO: 3) on MMP1 expression, in accordance with the following protocol.
# Human skin (2× human explant tissues) removed at elective surgery was cleaned, dissected and cut into pieces of approx. 5mm×5mm. Each piece was placed in a well of a 96 well plate, with individual plates prepared to assess the effects 3 hrs post treatment. Skin was subjected to UV-radiation from solar-simulated UV source for 1.5 h (UVR), or non-irradiation (SHAM), and treated immediately after with a vehicle control, Calcitriol (1 nM) or the polypeptide IK34720 (SEQ ID NO: 3) at concentrations of 50 μM, 250 μM or 500 uM. In FIG. 17, IK50, IK250 and IK500 as μM concentrations refers to 15 μg, 75 μg and 150 μg of IK34720 per 120 μL culture medium/explant, respectively.
# Samples harvested at 3 hrs were fixed, sectioned, immunohistochemically stained for MMP1 and quantified for MMP1 expression, by expressing epidermal area stained for MMP1 as a function of total epidermal area examined.
sequence,measurement,setting,value
"RSKAKNPLYRRRRRRRRR [IK34720, 18-residue polypeptide: … with a C-terminal polyarginine region of 8 arginines]",percentage of MMP1 positive cells,"500 μM, 3 hrs, FIG. 18",statistically significantly reduced
same,cells staining for MMP-1,"3 hrs post irradiation/treatment, Calcitriol 1 nM, IK34720 50, 250 or 500 uM, FIG. 17",fewer stained cells

# Source: patent US20220409510A1, “Polypeptides And Methods For Improving Skin Conditions” (Interk Peptide Therapeutics Limited, priority 2018, published 2022)
